Laboratory results as given in patent US4288439A, “Anti-ulcer treatment method” (priority 1978, dated 1981).

Key:
[1] = anti-secretory activity test (Shay et al); type: in vivo
Procedure: (§1) Anti-ulcer activity was determined by the stress-induced erosion test of Senay & Levine, Proc. Soc. Exp. Biol. Med., 124, 1221-3(1967) and anti-secretory activity by the test of H. Shay, D. Sun and H. Greenstein, Gastroenterology, 1954, 26,903-13 as exemplified by Beattie et al in J. Med Chem, 20,714 (1977).

[2] = stress-induced erosion test (Senay & Levine), anti-ulcer activity; type: in vivo; settings: Dose 100 mg/kg
Procedure: as §1

Compound | Anti-Secretory (Shay et al) % change in volt ([1]; Dose 10 mg/kg) | Anti-Secretory (Shay et al) % change in volt ([1]; Dose 30 mg/kg) | Stress Induced erosion (Senay & Levine) % inhibition [2]
C[n+]1ccccc1SCSc1cccc[n+]1C [Example 1, Methylene bis((1-methylpyridinium-2-yl)-thio) diiodide] | -32% | -62% | 71%
C[n+]1ccccc1SCCSc1cccc[n+]1C [Example 2, 1,2-Di-((1-methylpyridinium-2-yl)thio)ethane dibromide] |  | -48% | 67%
